Values of other authors as cited in patent publication US8318788B2, “Layered pharmaceutical formulations” (priority 2006, dated 2012).

Tests used:
[1] = patients presenting primary obesity

For `CNCCC(Oc1ccc(C(F)(F)F)cc1)c1ccccc1` (stereo not drawn) [Fluoxetine, N-methyl-3-phenyl-3-[4-(trifluoromethyl)phenoxy]-propan-1-amine], the bioavailability (in vivo) is given as “approximately 72%”, the physiological half life (in vivo) is given as “about 24 hours” and the plasma protein binding (mostly albumin) is given as “highly bound to plasma proteins”.

For `Cc1cc2c(s1)Nc1ccccc1N=C2N1CCN(C)CC1` [Olanzapine, 2-methyl-4-(4-methyl-1-piperazinyl)-10H-thieno[2,3-b][1,5]benzodiazepine], the “effect of food on bioavailability” value (in vivo) is given as “not affected by food”, the first pass metabolism (in vivo) is given as “extensive first pass metabolism” and the kinetics (in vivo) is given as “linear kinetics”. The “time until steady state plasma concentrations are achieved” value (in vivo) was “about a week”.

In the case of `NS(=O)(=O)Cc1noc2ccccc12` [Zonisamide], the weight loss [1] is given as “significant weight loss” and the “inhibitory effect on carbonic anhydrase” value (carbonic anhydrase) is given as “weak inhibitory effect”.
